Source: US20170119806A1, “[…] LACTONE DERIVATIVES AND METHODS OF MAKING AND USING THEREOF” (OHIO STATE INNOVATION FOUNDATION, priority 2014, published 2017)
Entries after “also recorded” stand apart in the source; their conditions may differ.

Columns and labels:
topo IIα = topo IIα (Homo sapiens, UniProt P11388); assay: Topoisomerase II assay (DNA cleavage/relaxation); format: biochemical; conditions: 100 μM test compound
From the text: The formation of linear DNA was detected by separating the SDS-treated reaction products using ethidium bromide gel electrophoresis and quantified by accounting for the relationship between fluorescence and relative band intensity for open circular (OC), linear (LNR), supercoiled (SC), and relaxed (RLX) configurations of DNA.
Topoisomerase II Assay. […] The formation of linear DNA was detected by separating the SDS-treated reaction products using ethidium bromide gel electrophoresis by a modification of a previously described procedure (Hasinoff B B et al. Mol. Pharmacol. 2005, 67, 937-947). In this system, topo II-mediated catalytic conversion of supercoiled pBR322 DNA to the “relaxed” form of plasmic' DNA can also be observed. A 20 μL cleavage assay reaction mixture contained 250 ng topo IIα protein, 160 ng pBR322 plasmid DNA (NEB, Ipswich, Mass.), 1.0 mM ATP in assay buffer (10 mM Tris-HCl (pH 7.5), 50 mM KCl, 50 mM NaCl, 0.1 mM EDTA, 5 mM MgCl2, 2.5% glycerol), and 100 μM of test compounds or DMSO solvent, as indicated. Assay buffer (17 μL) and test compound/DMSO (1 μL) were mixed and allowed to sit at room temperature for 30 min after which 2 μL of topo IIα was added to initiate the reaction. Tubes were incubated at 37° C. for 15 min, and then quenched with 1% (v/v) SDS/10 mM disodium EDTA/200 mM NaCl. The mixture was treated subsequently with 0.77 mg/mL proteinase K (Sigma) at 55° C. for 60 min to digest the protein, and DNA bands were separated by electrophoresis (18 h at 2 V/cm) on an agarose gel (1.3% w/v) containing 0.7 μg/mL ethidium bromide in TAE buffer pH 8.0 (40 mM Tris base, 0.114% (v/v) glacial acetic acid, 2 mM EDTA). The DNA in the gel was imaged by its fluorescence on a Chemi-Doc XRS+ imager (Bio-Rad, Hercules, Calif.). Linear DNA was quantified by accounting for the relationship between fluorescence and relative band intensity for open circular (QC), linear (LNR), supercoiled (SC), and RLX (relaxed) configurations of DNA (Projan S J et al. Plasmid 1983, 9, 182-190), then calculating % of LNR from the total DNA content in each lane.

[1] = system: primary NK cells cocultured with ARH-77 target cells; assay: NK cell cytotoxicity assay (51Cr release); format: cell-based, human; conditions: 10 μM PL-C 8 h, then 4 h coculture, with IL-12 or IL-15; listed as PL-C
Experimental: (A) Human […] were treated with DMSO vehicle control or 10 μM PL-C for 18 hours in the presence of IL-12 (10 ng/mL) or IL-15 (100 ng/mL), as described in FIG. 37C. The cells were harvested for intracellular flow cytometry to determine the frequency of IFN-γ^+ cells in CD56^−CD3^+[…] or CD56^−CD3^+CD8^+T. Representative data from 1 out of 5 donors are shown. (B) Purified primary NK cells were treated with IL-12 (10 ng/mL) or IL-15 (100 ng/mL) with or without 10 μM PL-C for 8 hours and were sequentially co-cultured with […] labeled ARH-77 cells at various effector/target cell ratios for additional 4 hours. ^51Cr release was measured by a TopCount counter. Data shown are the means of 3 donors. […] Error bars represent S.D. (C) Purified primary NK cells were treated with 10 μM PL-C in the presence of IL-12 (10 ng/mL) (top) or IL-15 (100 ng/mL) (bottom) for 12 hours, and cell pellets were harvested for detecting granzyme A (GZMA), granzyme B (GZMB), perforin (PRF1) and Fas (Fasl) mRNA expression level by real-time RT-PCR. Data shown are the means of 6 donors. p>0.05, vehicle control versus PL-C in all panels. Error bars represent S.D.
Cytotoxicity assay. Cytotoxicity assay was performed as described previously (Yu J et al. Immunity 2006, 24, 575-590; Yu J et al. Blood 2010, 115, 274-281). […] The release of ^51Cr was counted on a TopCount counter (Canberra Packard, Meriden, Conn.). […]

topo IIα, sequence (P11388 whole entry): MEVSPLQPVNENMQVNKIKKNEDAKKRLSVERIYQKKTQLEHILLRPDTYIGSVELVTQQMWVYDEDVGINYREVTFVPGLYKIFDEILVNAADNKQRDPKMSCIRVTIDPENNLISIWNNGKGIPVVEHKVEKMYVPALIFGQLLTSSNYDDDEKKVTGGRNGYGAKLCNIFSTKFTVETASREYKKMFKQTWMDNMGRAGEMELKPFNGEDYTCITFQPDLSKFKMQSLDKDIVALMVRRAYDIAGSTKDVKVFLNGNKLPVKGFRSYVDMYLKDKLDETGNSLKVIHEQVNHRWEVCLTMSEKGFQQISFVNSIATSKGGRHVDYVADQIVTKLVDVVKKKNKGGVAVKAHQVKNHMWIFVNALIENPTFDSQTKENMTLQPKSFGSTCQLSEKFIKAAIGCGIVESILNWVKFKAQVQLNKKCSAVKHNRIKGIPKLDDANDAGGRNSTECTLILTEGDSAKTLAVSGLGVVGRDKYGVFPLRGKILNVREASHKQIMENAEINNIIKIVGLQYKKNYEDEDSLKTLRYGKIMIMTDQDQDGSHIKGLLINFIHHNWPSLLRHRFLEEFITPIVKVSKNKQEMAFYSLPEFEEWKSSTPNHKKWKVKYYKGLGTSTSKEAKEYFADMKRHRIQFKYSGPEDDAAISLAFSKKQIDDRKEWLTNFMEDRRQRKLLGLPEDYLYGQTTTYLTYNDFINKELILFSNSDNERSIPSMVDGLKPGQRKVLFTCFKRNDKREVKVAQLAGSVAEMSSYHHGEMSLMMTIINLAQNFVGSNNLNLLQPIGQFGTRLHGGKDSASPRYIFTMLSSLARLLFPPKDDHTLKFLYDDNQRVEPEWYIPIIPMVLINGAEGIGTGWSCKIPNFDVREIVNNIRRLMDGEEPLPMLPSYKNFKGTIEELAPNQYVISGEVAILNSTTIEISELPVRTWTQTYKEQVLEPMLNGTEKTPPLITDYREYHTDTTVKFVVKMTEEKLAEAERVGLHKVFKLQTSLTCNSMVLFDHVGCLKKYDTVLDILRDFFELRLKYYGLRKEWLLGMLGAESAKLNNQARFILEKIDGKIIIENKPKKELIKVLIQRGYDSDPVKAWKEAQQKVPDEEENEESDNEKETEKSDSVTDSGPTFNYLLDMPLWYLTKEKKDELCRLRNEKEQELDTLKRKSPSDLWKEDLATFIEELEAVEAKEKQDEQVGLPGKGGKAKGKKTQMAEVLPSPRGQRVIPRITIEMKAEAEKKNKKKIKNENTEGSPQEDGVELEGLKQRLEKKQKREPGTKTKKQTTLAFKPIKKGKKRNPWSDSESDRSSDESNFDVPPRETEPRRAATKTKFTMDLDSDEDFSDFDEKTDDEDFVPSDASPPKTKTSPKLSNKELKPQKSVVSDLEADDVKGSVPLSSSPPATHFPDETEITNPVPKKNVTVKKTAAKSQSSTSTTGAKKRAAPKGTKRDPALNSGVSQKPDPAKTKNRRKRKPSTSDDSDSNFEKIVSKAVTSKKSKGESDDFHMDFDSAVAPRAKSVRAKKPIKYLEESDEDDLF

With `COc1cc2c(OC3OCC(O)C(O)C3O)c3c(c(-c4ccc5c(c4)OCO5)c2cc1OC)C(=O)OC3` (centres unmarked) [Compound 4, Phyllanthusmin C] the “topo IIα inhibition (in words)” value (topo IIα) was “not topo Ha inhibitors; also recorded: not topo IIα inhibitors” and the NK cell cytotoxicity [1] was “no statistically significant difference; also recorded: little or no; also recorded: did not activate NK cell cytotoxicity; also recorded: limited effect on NK cytotoxicity”.
